Data taken from patent publication US10285939B2, “Means and methods for ocular drug delivery” (Eberhard Karls Universität Tübingen Medizinische Fakultät, priority 2013, dated 2019).
[C12U] = 2'-deoxyuridine carrying a dodecyne (lipid) modification

Legend:
[1] = tested on: corneal epithelium of living rats; experiment: Adhesion of fluorescently labelled DNA amphiphile NP eye drops to the cornea of living rats; format: in vivo, rat; conditions: for Number of NP positive eyes out of total number eyes: 20 μM, conscious rats; for adhesion to the cornea (fluorescence images of cryo sections): in-vivo rat eye
Procedure: Adult Lister Hooded Rats were obtained from Harlan Winkelmann, Germany. For the eye drop applications the conscious rats were very shortly fixated and a drop was administered to the eye using a single drop device as in medical applications. Blinking of the eyes was not hindered during drop application or afterwards. After the designated incubation time-point the rat were sacrificed with carbon dioxide inhalation.
After the predetermined time point the animal was sacrificed and the eyes were enucleated and frozen in Tissue-Tek O.C.T. (Sakura Finetek, Germany) in liquid nitrogen. Frozen sections were longitudinally cut (12 μm) on a cryostat (Leica CM 1900, Germany), thaw-mounted onto glass slides (Superfrost plus, R. Langenbrinck Labor- and Medizintechnik, Germany) and stored at −30° C. until further use. Further processing was performed using standard procedures. Briefly, for visualisation sections were fixed with methanol and to stain nuclei, sections were further incubated in a solution containing 0.2 μg/ml 4′,6-diamidino-2-phenylindol (DAPI) for 1 min. Stained sections were embedded in FluorSave (Calbiochem, Germany) and imaged using a fluorescent microscope (Axioplan2 Imaging®, Zeiss, Germany with the Openlab software, Improvision, Germany).^33 Animals were treated according to the Principles of laboratory animal care (NIH publication No. 85-23, revised 1985), the OPRR Public Health Service Policy on the Human Care and Use of Laboratory Animals (revised 1986) and the German animal protection law (Research permission AK3/11 to S.S.)
The eye drops containing the different fluorescently labelled DNA amphiphiles at a concentration of 20 μM were administered to conscious rats using a single drop of 30 μL and 30 min, 2 or 24 h after application the animals were sacrificed. Cryo sections of the treated eyes were prepared and imaged using fluorescence microscopy. As controls, single stranded (ss) and double stranded (ds) DNA lacking the lipid-modified nucleotide were administered as eye drops in the same fashion. Selection of the best carrier was performed by comparing the number of DNA amphiphile stained eyes to the total number of eyes to which eye drops were given and, in the case of an equal amount of positives, by visual comparison of the cryo sections (see Table 3).
After selection of U4T-12 as the best carrier, the adherence time on the cornea was evaluated (see FIG. 3). The NPs of U4T-12 are already observed 5 min after application of the eye drops, thus showing a fast adherence to the cornea. Then the NPs are present for a period of at least four hours because distinct green fluorescence of the carrier was clearly visible. […] After these successful proof-of-concept experiments we applied U4T-12 aptamer-functionalized carriers loaded with neomycinB or kanamycinB because these two antibiotics are currently used for treatment of ophthalmic indications. For localization of the drug loaded carrier the aptamer was functionalized with a red fluorescent dye at the 5′ end. The eye drops were administered as described earlier and the adherence to the cornea was studied 5, 15 and 30 minutes after application (see FIG. 4).

[2] = In-vitro adhesion to porcine eye; conditions: NPs 20 μM, 15 minutes incubation, thoroughly washed in PBS
Procedure: In order to further gauge the adherence of different nanoparticles (NPs) to the eye surface, porcine eyes were obtained from the local slaughterhouse and exposed to the different NPs. The NPs were prepared as described in example 1, section 1.2, at a concentration of 20 μM. The porcine eye was transferred to a 6-well plate and 2 rings of different diameter were placed on top of the cornea to prevent spillage of the NP solution. Subsequently, 50 μl of NP solution was put on top of the cornea and incubated for 15 minutes. Afterwards, the rings were removed using tweezers and the eyes were thoroughly washed in PBS (PAA, Germany). The eye was divided into two along the visual axis. Of the two halves one was stored in formaldehyde, whereas the other was frozen in Tissue Tek, cut on a cryostat, stained with DAPI and photographed as described in example 1. To determine the binding capabilities of the NPs, they were exposed to porcine eyes obtained from the local slaughterhouse. For comparison the NPs from example 1 were included in the experiments. After 15 minutes of incubation with the NPs, the porcine eye was thoroughly washed in PBS buffer and frozen in tissue tek. The adhesion to the cornea was evaluated by fluorescence microscopy (See FIG. 8).

[3] = 30 min after a single 30 μL eye drop
[4] = 2 hours after a single 30 μL eye drop
[5] = 24 hours after a single 30 μL eye drop
[6] = rat, eye drops, green fluorescence of the carrier

Q: With “U6T-20: lipid modified oligonucleotide UUUUUUGCGGATTCGTCTGC (5′→3′), U = dodecyne modified deoxyuridine (DNA, [C12U] at 1, 2, 3, 4, 5, 6, backbone and methylation of C not given here)” as the substance, how does the “Number of NP positive eyes out of total number eyes” value (shortened to “Number”) [1, 3] read?
A: Its value is 2/2.

Q: What about the “Number” value [1, 4] of the same substance?
A: Its value is 1/3.

Q: And the “Number” value [1, 5]?
A: Its value is 0/3.

Q: Which results are given for “U2T-12: lipid modified oligonucleotide UUTGGCGGATTC (5′→3′), U = dodecyne modified deoxyuridine; forms micellar NPs (DNA, [C12U] at 1, 2, backbone and methylation of C not given here; forms micellar nanoparticles)”?
A: Number of NP positive eyes out of total number eyes [1, 3]: 2/4; Number of NP positive eyes out of total number eyes [1, 4]: 0/4; Number of NP positive eyes out of total number eyes [1, 5]: 0/4; adhesion to the cornea (fluorescence images of cryo sections) ([1]; eye drops): adhere significantly less

Q: For “U2M-12: amphiphile with sequence TCCUUGGCGCAG, lipid modified nucleotides situated inside the chain (lipid-modified nucleotides inside the chain, which positions not given here, further chemistry not given here)”, which “adherence to the porcine cornea (fluorescence microscopy)” value [2] is on record?
A: Its value is “hardly any adherence”.

Q: Which results are given for “U4T-18: lipid modified oligonucleotide UUUUGCGGATTCGTCTGC (5′→3′), U = dodecyne modified deoxyuridine (DNA, [C12U] at 1, 2, 3, 4, backbone and methylation of C not given here)”?
A: Number of NP positive eyes out of total number eyes [1, 3]: 4/5; Number of NP positive eyes out of total number eyes [1, 4]: 0/4; Number of NP positive eyes out of total number eyes [1, 5]: 0/4

Q: With “U4T-12: lipid modified oligonucleotide UUUUGCGGATTC (5′→3′), U = dodecyne modified deoxyuridine; forms micellar NPs (DNA, [C12U] at 1, 2, 3, 4, backbone and methylation of C not given here; forms micellar nanoparticles)” as the substance, how does the “Number” value [1, 3] read?
A: Its value is 6/6.

Q: What about the “Number” value [1, 4] of the same substance?
A: The value was 4/6.

Q: What about the “Number” value [1, 5] of the same substance?
A: The value was 0/4.

Q: And the “adhesion to the cornea (fluorescence images of cryo sections)” value ([1]; eye drops)?
A: The value was “best attachment”.

Q: And the “adherence time on the cornea (period NPs are present)” value [1, 6]?
A: The value was “at least four”.

Q: And the “time after application of the eye drops at which NPs are already observed on the cornea” value [1, 6]?
A: Its value is at most 5 min.

Q: And the “adherence to the porcine cornea (fluorescence microscopy)” value [2]?
A: The value was “good adherence”.

Q: Which “Number” value [1, 3] does the source give for “U6T-12: lipid modified oligonucleotide UUUUUUGGATTC (5′→3′), U = dodecyne modified deoxyuridine (DNA, [C12U] at 1, 2, 3, 4, 5, 6, backbone and methylation of C not given here)” here?
A: Its value is 3/3.

Q: And the “Number” value [1, 4]?
A: The value was 1/4.

Q: What about the “Number” value [1, 5] of the same substance?
A: Its value is 0/1.

Q: And the “adhesion to the cornea (fluorescence images of cryo sections)” value ([1]; eye drops)?
A: Its value is “adhere significantly less”.
